# In the NIST ThermoML archive (doi:10.1016/j.jct.2005.03.020):
# ± gives the expanded uncertainty stated by the source.
# Columns and labels:
# [1] = xn = mol fraction of the nth substance listed; conditions: 298.15 K, 101.33 kPa, Liquid
# [2] = excess molar enthalpy (molar enthalpy of mixing); xn = mol fraction of the nth substance listed; conditions: 298.15 K, 101.33 kPa, Liquid
structure (smiles),measurement,setting,value
"ClCCCCl [1,3-dichloropropane] + CCOC(C)=O",mass density,[1]; x2 = 0.0582,1160.94 ± 0.8 kg/m3
same,mass density,[1]; x2 = 0.1136,1144.62 ± 0.76 kg/m3
same,mass density,[1]; x2 = 0.1719,1127.58 ± 0.71 kg/m3
same,mass density,[1]; x2 = 0.2292,1110.81 ± 0.67 kg/m3
same,mass density,[1]; x2 = 0.2869,1094.08 ± 0.62 kg/m3
same,mass density,[1]; x2 = 0.3444,1077.42 ± 0.58 kg/m3
same,mass density,[1]; x2 = 0.4017,1061.01 ± 0.54 kg/m3
same,mass density,[1]; x2 = 0.4609,1044.12 ± 0.5 kg/m3
same,mass density,[1]; x2 = 0.5208,1027.15 ± 0.46 kg/m3
same,mass density,[1]; x2 = 0.5839,1009.34 ± 0.42 kg/m3
same,mass density,[1]; x2 = 0.6423,992.92 ± 0.4 kg/m3
same,mass density,[1]; x2 = 0.7017,976.39 ± 0.4 kg/m3
same,mass density,[1]; x2 = 0.7599,960.24 ± 0.41 kg/m3
same,mass density,[1]; x2 = 0.8205,943.48 ± 0.43 kg/m3
same,mass density,[1]; x2 = 0.8803,927.01 ± 0.44 kg/m3
same,mass density,[1]; x2 = 0.9389,911.03 ± 0.46 kg/m3
"ClCCCCl [1,3-dichloropropane] + CCOC=O",mass density,[1]; x2 = 0.076,1161.06 ± 0.88 kg/m3
same,mass density,[1]; x2 = 0.1432,1145.36 ± 0.91 kg/m3
same,mass density,[1]; x2 = 0.2073,1130.02 ± 0.95 kg/m3
same,mass density,[1]; x2 = 0.2696,1114.94 ± 0.98 kg/m3
same,mass density,[1]; x2 = 0.3338,1099.05 ± 1 kg/m3
same,mass density,[1]; x2 = 0.394,1083.9 ± 1.1 kg/m3
same,mass density,[1]; x2 = 0.4558,1068.05 ± 1.1 kg/m3
same,mass density,[1]; x2 = 0.5152,1052.57 ± 1.1 kg/m3
same,mass density,[1]; x2 = 0.5731,1037.18 ± 1.2 kg/m3
same,mass density,[1]; x2 = 0.6297,1021.91 ± 1.2 kg/m3
same,mass density,[1]; x2 = 0.6862,1006.34 ± 1.2 kg/m3
same,mass density,[1]; x2 = 0.7413,990.94 ± 1.3 kg/m3
same,mass density,[1]; x2 = 0.794,975.98 ± 1.3 kg/m3
same,mass density,[1]; x2 = 0.8475,960.54 ± 1.4 kg/m3
same,mass density,[1]; x2 = 0.8994,945.31 ± 1.4 kg/m3
same,mass density,[1]; x2 = 0.9494,930.3 ± 1.4 kg/m3
"ClCCCCCl [1,4-dichlorobutane] + CCCC(=O)OCC",excess molar enthalpy,[2]; x2 = 0.0516,-0.00502 ± 0.000454 kcal/mol
same,excess molar enthalpy,[2]; x2 = 0.1108,-0.0127 ± 0.000574 kcal/mol
same,excess molar enthalpy,[2]; x2 = 0.172,-0.0208 ± 0.000693 kcal/mol
same,excess molar enthalpy,[2]; x2 = 0.2328,-0.0297 ± 0.000837 kcal/mol
same,excess molar enthalpy,[2]; x2 = 0.2891,-0.0397 ± 0.00098 kcal/mol
same,excess molar enthalpy,[2]; x2 = 0.3455,-0.0467 ± 0.0011 kcal/mol
same,excess molar enthalpy,[2]; x2 = 0.3976,-0.053 ± 0.0012 kcal/mol
same,excess molar enthalpy,[2]; x2 = 0.4477,-0.0578 ± 0.00127 kcal/mol
same,excess molar enthalpy,[2]; x2 = 0.4757,-0.0598 ± 0.00129 kcal/mol
same,excess molar enthalpy,[2]; x2 = 0.5265,-0.0616 ± 0.00131 kcal/mol
same,excess molar enthalpy,[2]; x2 = 0.5821,-0.0614 ± 0.00131 kcal/mol
same,excess molar enthalpy,[2]; x2 = 0.6443,-0.0597 ± 0.00129 kcal/mol
same,excess molar enthalpy,[2]; x2 = 0.7111,-0.0554 ± 0.00122 kcal/mol
same,excess molar enthalpy,[2]; x2 = 0.7821,-0.0468 ± 0.0011 kcal/mol
same,excess molar enthalpy,[2]; x2 = 0.8567,-0.0343 ± 0.000908 kcal/mol
same,excess molar enthalpy,[2]; x2 = 0.9323,-0.0189 ± 0.000669 kcal/mol
same,mass density,[1]; x2 = 0.0516,1117.97 ± 0.75 kg/m3
same,mass density,[1]; x2 = 0.1009,1103.15 ± 0.75 kg/m3
same,mass density,[1]; x2 = 0.1531,1087.78 ± 0.75 kg/m3
same,mass density,[1]; x2 = 0.2042,1072.99 ± 0.75 kg/m3
same,mass density,[1]; x2 = 0.2583,1057.63 ± 0.75 kg/m3
same,mass density,[1]; x2 = 0.3128,1042.49 ± 0.75 kg/m3
same,mass density,[1]; x2 = 0.3701,1026.87 ± 0.76 kg/m3
same,mass density,[1]; x2 = 0.4267,1011.74 ± 0.76 kg/m3
same,mass density,[1]; x2 = 0.5437,981.4 ± 0.8 kg/m3
same,mass density,[1]; x2 = 0.6058,965.8 ± 0.83 kg/m3
same,mass density,[1]; x2 = 0.6681,950.44 ± 0.86 kg/m3
same,mass density,[1]; x2 = 0.7293,935.66 ± 0.89 kg/m3
same,mass density,[1]; x2 = 0.8601,905.05 ± 0.95 kg/m3
same,mass density,[1]; x2 = 0.9259,890.1 ± 0.98 kg/m3
"ClCCCCCl [1,4-dichlorobutane] + CCOC(=O)CC",mass density,[1]; x2 = 0.0587,1117.82 ± 0.73 kg/m3
same,mass density,[1]; x2 = 0.1153,1103.37 ± 0.7 kg/m3
same,mass density,[1]; x2 = 0.1718,1088.99 ± 0.68 kg/m3
same,mass density,[1]; x2 = 0.2299,1074.24 ± 0.65 kg/m3
same,mass density,[1]; x2 = 0.2859,1060.13 ± 0.63 kg/m3
same,mass density,[1]; x2 = 0.3447,1045.32 ± 0.6 kg/m3
same,mass density,[1]; x2 = 0.403,1030.76 ± 0.58 kg/m3
same,mass density,[1]; x2 = 0.4615,1016.16 ± 0.56 kg/m3
same,mass density,[1]; x2 = 0.5233,1000.86 ± 0.54 kg/m3
same,mass density,[1]; x2 = 0.5825,986.22 ± 0.54 kg/m3
same,mass density,[1]; x2 = 0.6382,972.47 ± 0.55 kg/m3
same,mass density,[1]; x2 = 0.698,957.78 ± 0.56 kg/m3
same,mass density,[1]; x2 = 0.8187,928.2 ± 0.59 kg/m3
same,mass density,[1]; x2 = 0.8774,913.87 ± 0.6 kg/m3
same,mass density,[1]; x2 = 0.9378,899.14 ± 0.62 kg/m3
